Where a name gives a salt, the structure may show the parent alone. Read-outs that look alike come from different tables or passages of the source. One block for each molecule: values may come before it.
Target: T1, protein farnesyltransferase (Rattus norvegicus, UniProt Q02293+Q04631)
T1 construct: Rat brain protein farnesyltransferase activity is measured; from tissue; host or cells: rat brain; purified according to Reiss et al., Cell 62:81-88 (1990), steps one through three
Assay: in vitro inhibition of protein farnesyltransferase (scintillation proximity assay, biotin-K Ras B fragment)
Assay type: biochemical
Settings: for inhibition at 0.1 µM / inhibition at 1 µM / inhibition at 0.01 µM: read-out: % inhibition of farnesyltransferase; for inhibition at 10 µM: at 1 × 10^-5 M; for inhibition at 0.01 µM: at 1 × 10^-8 M
Method in brief: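 Rat brain enzyme, purified through three steps, in a scintillation proximity assay kit with biotin-K Ras B fragment substrate at 0.1 mM final. Value is % inhibition of farnesylation.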

Compound: CSCC[C@H](NC(=O)c1ccc(CSc2nc(O)cc(Cc3ccccc3)n2)cc1-c1ccccc1C)C(=O)O [Example 744]
% inhibition of farnesyltransferase (at 1 × 10^-6 M): 84%

Compound: CSCC[C@H](NC(=O)c1ccc(CSc2nc3ccccc3c(=O)[nH]2)cc1-c1ccccc1C)C(=O)O [Example 745]
% inhibition of farnesyltransferase (at 1 × 10^-7 M): 93%

Compound: CSCC[C@H](NC(=O)c1ccc(CSc2ncnc3[nH]ncc23)cc1-c1ccccc1C)C(=O)O [Example 746]
% inhibition of farnesyltransferase (at 1 × 10^-7 M): 84%

Compound: CSCC[C@H](NC(=O)c1ccc(CSc2ncnc3[nH]cnc23)cc1-c1ccccc1C)C(=O)O [Example 747]
% inhibition of farnesyltransferase (at 1 × 10^-7 M): 68%

Compound: CSCC[C@H](NC(=O)c1ccc(NC(=O)CN)cc1-c1ccccc1)C(=O)O [Example 748]
inhibition at 0.1 µM (at 1 × 10^-7 M): 56%

Compound: CNCC(=O)Nc1ccc(C(=O)N[C@@H](CCSC)C(=O)O)c(-c2ccccc2)c1 [Example 749]
inhibition at 1 µM (at 1 × 10^-6 M): 84%

Compound: CSCC[C@H](NC(=O)c1ccc(NC(=O)CCN)cc1-c1ccccc1)C(=O)O [Example 750]
inhibition at 10 µM: 44%

Compound: CSCC[C@H](NC(=O)c1ccc(NC(=O)C[C@H]2C[C@@H](C(C)=O)C2(C)C)cc1-c1ccccc1)C(=O)O [Example 751]
inhibition at 1 µM (at 1 × 10^-6 M): 32%

Compound: CSCC[C@H](NC(=O)c1ccc(NC(=O)c2cccc(N(C)C)c2)cc1-c1ccccc1)C(=O)O [Example 752]
inhibition at 10 µM: 58%

Compound: COc1cc(Cl)ccc1C(=O)Nc1ccc(C(=O)N[C@@H](CCSC)C(=O)O)c(-c2ccccc2)c1 [Example 753]
inhibition at 10 µM: 55%

Compound: COc1ccc(Br)c(C(=O)Nc2ccc(C(=O)N[C@@H](CCSC)C(=O)O)c(-c3ccccc3)c2)c1 [Example 754]
inhibition at 10 µM: 40%

Compound: COc1cc(I)c(C(=O)Nc2ccc(C(=O)N[C@@H](CCSC)C(=O)O)c(-c3ccccc3)c2)cc1OC [Example 756]
inhibition at 10 µM: 47%

Compound: CSCC[C@H](NC(=O)c1ccc(NC(=O)Cc2ccccc2[N+](=O)[O-])cc1-c1ccccc1)C(=O)O [Example 757]
inhibition at 10 µM: 58%

Compound: COc1ccc(C(=O)Nc2ccc(C(=O)N[C@@H](CCSC)C(=O)O)c(-c3ccccc3)c2)c(O)c1 [Example 758]
inhibition at 10 µM: 46%

Compound: Cc1ccccc1-c1cc(CN(Cc2ccccc2)c2cccnc2)ccc1C(=O)N[C@@H](CCS(C)(=O)=O)C(=O)O [Example 759, (2S)-2-N-[4-(N-benzyl-N-3-pyridylaminomethyl)-2-(2-methylphenyl)benzoyl]amino-4-methanesulfonylbutanoic acid]
inhibition at 10 µM: 49%

Compound: CSCC[C@H](NC(=O)c1ccc(CN(CCC2CCCCC2)C(=O)c2ccccc2)cc1-c1ccccc1C)C(=O)O [Example 762, N-[4-N-Benzoyl-N-2-cyclohexylethylaminomethyl-2-(2-methylphenyl)benzoyl]methionine lithium salt]
inhibition at 0.01 µM: 84%

Compound: CSCC[C@H](NC(=O)c1ccc(CN(CCC2CCCCC2)C(=O)OC(C)(C)C)cc1-c1ccccc1C)C(=O)O [Example 763, N-[4-N-t-Butyloxycarbonyl-N-2-cyclohexylethylaminomethyl-2-(2-methylphenyl)benzoyl]methionine lithium salt]
inhibition at 0.01 µM: 92%

Compound: CCSC[C@H](CC1CCCCC1)NCc1ccc(C(=O)N[C@@H](CCSC)C(=O)OCOC(=O)C(C)(C)C)c(-c2ccccc2C)c1 [Example 764, hydrochloride salt]
inhibition at 1 µM (at 1 × 10^-6 M): 88%

Compound: CCSC[C@H](CC1CCCCC1)NCc1ccc(C(=O)N(C)[C@@H](CCSC)C(=O)O)c(-c2ccccc2C)c1 [Example 765, lithium salt]
inhibition at 1 µM (at 1 × 10^-6 M): 76%

Compound: CSCC[C@H](NC(=O)c1ccc(CN[C@H](CSC2CCCCC2)CC2CCCCC2)cc1-c1ccccc1C)C(=O)O [Example 766, lithium salt]
inhibition at 0.01 µM: 95%

Compound: CSCC[C@H](NC(=O)c1ccc(S(=O)(=O)N(Cc2ccccc2)c2ccccc2)cc1-c1ccccc1C)C(=O)[O-].[Li+] [Example 768]
% inhibition of farnesyltransferase (at 1 × 10^-6 M): 67%

Compound: CSCC[C@H](NC(=O)c1ccc(C=Cc2cncs2)cc1-c1ccccc1C)C(=O)[O-].[Li+] [Example 785]
% inhibition of farnesyltransferase (at 1 × 10^-7 M): 96%

Compound: CSCC[C@H](NC(=O)c1ccc(-c2ccccc2-c2ccccc2)cc1-c1ccccc1C)C(=O)[O-].[Li+] [Example 786]
% inhibition of farnesyltransferase (at 1 × 10^-6 M): 34%

Compound: CSCC[C@H](NC(=O)c1ccc(-c2cccc(-c3ccccc3)c2)cc1-c1ccccc1C)C(=O)[O-].[Li+] [Example 787]
% inhibition of farnesyltransferase (at 1 × 10^-6 M): 70%

Compound: CSCC[C@H](NC(=O)c1ccc(-c2ccc(-c3ccccc3)cc2)cc1-c1ccccc1C)C(=O)[O-].[Li+] [Example 788]
% inhibition of farnesyltransferase (at 1 × 10^-6 M): 44%

Compound: CSCC[C@H](NC(=O)c1ccc(CCc2cccc(-c3ccccc3)c2)cc1-c1ccccc1C)C(=O)[O-].[Li+] [Example 793]
% inhibition of farnesyltransferase (at 1 × 10^-6 M): 94%

Compound: CSCC[C@H](NC(=O)c1ccc(COc2ccc(Oc3ccccc3)cc2)cc1-c1ccccc1C)C(=O)[O-].[Li+] [Example 795]
% inhibition of farnesyltransferase (at 1 × 10^-7 M): 87%

Compound: CCOC(=O)N1CCC(NCc2ccc(C(=O)N[C@@H](CCSC)C(=O)O)c(-c3ccccc3C)c2)CC1 [Example 806, N-[4-(1-ethoxycarbonylpiperidin-4-ylaminomethyl)-2-(2-methylphenyl)benzoyl]methionine lithium salt]
inhibition at 1 µM: 72%

Compound: CSCC[C@H](NC(=O)c1ccc(COC2CCN(C(=O)OC(C)(C)C)CC2)cc1-c1ccccc1C)C(=O)[O-].[Li+] [Example 808]
% inhibition of farnesyltransferase (at 1 × 10^-6 M): 88%

Compound: CSCC[C@H](NC(=O)c1ccc(COC2(Cc3ccccc3)CCN(C(=O)OC(C)(C)C)CC2)cc1-c1ccccc1C)C(=O)[O-].[Li+] [Example 809]
% inhibition of farnesyltransferase (at 1 × 10^-6 M): 78%

Compound: CSCC[C@H](NC(=O)c1ccc(COC2(c3ccccc3)CCN(C(=O)OC(C)(C)C)CC2)cc1-c1ccccc1C)C(=O)[O-].[Li+] [Example 816]
% inhibition of farnesyltransferase (at 1 × 10^-6 M): 87%

More lines, now with the values ahead:

inhibition at 0.01 µM: 97%
Compound: CSCC[C@H](NC(=O)c1ccc(CN[C@H](CSc2ccccc2C)CC2CCCCC2)cc1-c1ccccc1C)C(=O)O [Example 767, lithium salt]

inhibition at 0.1 µM (at 1 × 10^-7 M): 90%
Compound: CSCC[C@H](NC(=O)c1ccc(CN(c2ccccc2)S(=O)(=O)c2ccccc2)cc1-c1ccccc1C)C(=O)O [Example 769, N-[4-N-(N-phenyl-N-benzenesulfonylaminomethyl)-2-(2-methylphenyl)benzoyl]methionine lithium salt]

inhibition at 0.1 µM (at 1 × 10^-7 M): 91%
Compound: CSCC[C@H](NC(=O)c1ccc(CN(c2ccccc2)S(=O)(=O)c2ccc(C)cc2)cc1-c1ccccc1C)C(=O)O [Example 770, N-[4-N-(N-phenyl-N-toluenesulfonylaminomethyl)-2-(2-methylphenyl)benzoyl]methionine lithium salt]

% inhibition of farnesyltransferase (at 1 × 10^-6 M): 79%
Compound: CSCC[C@H](NC(=O)c1ccc(S(=O)(=O)NCCC2CCCCC2)cc1-c1ccccc1C)C(=O)O [Example 772]

% inhibition of farnesyltransferase (at 1 × 10^-6 M): 41%
Compound: CSCC[C@H](NC(=O)c1ccc(S(=O)(=O)NC2CCN(Cc3ccccc3)CC2)cc1-c1ccccc1C)C(=O)O [Example 773]

% inhibition of farnesyltransferase (at 1 × 10^-6 M): 48%
Compound: CSCC[C@H](NC(=O)c1ccc(S(=O)(=O)NCCN2CCCCC2)cc1-c1ccccc1C)C(=O)O [Example 774]

% inhibition of farnesyltransferase (at 1 × 10^-6 M): 32%
Compound: CSCC[C@H](NC(=O)c1ccc(S(=O)(=O)NCCN2CCOCC2)cc1-c1ccccc1C)C(=O)O [Example 775]

% inhibition of farnesyltransferase (at 1 × 10^-6 M): 36%
Compound: COc1ccc(CCNS(=O)(=O)c2ccc(C(=O)N[C@@H](CCSC)C(=O)O)c(-c3ccccc3C)c2)cc1OC [Example 776]

% inhibition of farnesyltransferase (at 1 × 10^-6 M): 83%
Compound: CSCC[C@H](NC(=O)c1ccc(S(=O)(=O)NCCCn2ccnc2)cc1-c1ccccc1C)C(=O)O [Example 777]

inhibition at 0.01 µM: 70%
Compound: COc1cccc(CN(Cc2ccc(C(=O)N[C@@H](CCSC)C(=O)O)c(-c3ccccc3C)c2)c2ccccc2)c1 [Example 779, N-[4-N-(N-phenyl-N-(3-methoxybenzyl)aniinomethyl)-2-(2-methylphenyl)benzoyl]methionine lithium salt]

inhibition at 0.01 µM: 71%
Compound: CSCC[C@H](NC(=O)c1ccc(CN(c2ccccc2)S(=O)(=O)c2ccc(C(F)(F)F)cc2)cc1-c1ccccc1C)C(=O)O [Example 780, N-[4-N-(N-phenyl-N-(4-trifluoromethylbenzenesulfonyl)aminomethyl)-2-(2-methylphenal)-benzoyl]methionine lithium salt]

inhibition at 0.1 µM (at 1 × 10^-7 M): 91%
Compound: CSCC[C@H](NC(=O)c1ccc(CN(Cc2ccc(Cl)cc2)c2ccccc2)cc1-c1ccccc1C)C(=O)O [Example 781, N-[4-N-(N-phenyl-N-(4-chlorobenzyl)aminomethyl)-2-(2-methylphenyl)benzoyl]methionine lithium salt]

inhibition at 1 µM (at 1 × 10^-6 M): 96%
Compound: CSCC[C@H](NC(=O)c1ccc(CN(Cc2ccc(C(F)(F)F)cc2)c2ccccc2)cc1-c1ccccc1C)C(=O)O [Example 782, N-[4-N-(N-phenyl-N-(4-trifluoromethylbenzyl)aminomethyl)-2-(2-methylphenyl)-benzoyl]methionine lithium salt]

% inhibition of farnesyltransferase (at 1 × 10^-6 M): 88%
Compound: CSCC[C@H](NC(=O)c1ccc(C[C@H]2CC[C@@H](c3ccccc3)CC2)cc1-c1ccccc1C)C(=O)O [Example 790]

% inhibition of farnesyltransferase (at 1 × 10^-6 M): 53%
Compound: CSCC[C@H](NC(=O)c1ccc(/C=C/c2ccccc2)cc1-c1ccccc1C)C(=O)O [Example 791]

% inhibition of farnesyltransferase (at 1 × 10^-6 M): 90%
Compound: CSCC[C@H](NC(=O)c1ccc(COC2CCN(Cc3ccccc3)CC2)cc1-c1ccccc1C)C(=O)O [Example 807]

% inhibition of farnesyltransferase (at 1 × 10^-6 M): 89%
Compound: CSCC[C@H](NC(=O)c1ccc(/C=C/c2ccc(Oc3ccccc3)nn2)cc1-c1ccccc1C)C(=O)O [Example 810]

% inhibition of farnesyltransferase (at 1 × 10^-7 M): 85%
Compound: CSCC[C@H](NC(=O)c1ccc(CCc2ccc(Oc3ccccc3)nn2)cc1-c1ccccc1C)C(=O)O [Example 811]

% inhibition of farnesyltransferase (at 1 × 10^-6 M): 94%
Compound: CSCC[C@H](NC(=O)c1ccc(/C=C/c2cnc(Oc3ccccc3)cn2)cc1-c1ccccc1C)C(=O)O [Example 812]

% inhibition of farnesyltransferase (at 1 × 10^-6 M): 95%
Compound: CSCC[C@H](NC(=O)c1ccc(CCc2cnc(Oc3ccccc3)cn2)cc1-c1ccccc1C)C(=O)O [Example 813]

Reference: patent US6310095A, “Inhibitors of protein isoprenyl transferases” (University of Pittsburgh, priority 1998, dated 2001)
